Measured values reported in patent US12370232B2, “Use of polyphenol containing sugar cane extracts for preventing, improving or treating a skin condition” (priority 2017, dated 2025).

Key:
[1] = test system: collagenase; test: Collagenase inhibition assay; assay type: biochemical
Procedure: A collagenase inhibition assay was performed to determine the collagenase inhibition of an extract derived from sugar cane of the present disclosure. Two batches (replicate 1 and replicate 2) of an extract derived from sugar cane of the present disclosure in a concentration of from 0.17 mg/mL to 350 mg/mL were tested for the ability to inhibit collagenase.
To measure collagenase inhibition potential of an extract derived from sugar cane of the present disclosure, a test sample of an extract derived from sugar cane was mixed sequentially with type-I collagen substrate and a diluted collagenase enzyme solution. After incubation for 30 minutes at 37° C., fluorescence was measured at excitation maxima of 495 nm and emission maxima of 515 nm. The inhibition percentage was calculated as follows.
[formula] Wherein, • Abssample=absorbance of the sample test, • Absblank=absorbance of the sample blank, • Abspositive control=absorbance of the positive control, and • Absnegative control=absorbance of the negative control.
1,10-phenanthroline was used as a positive assay control. Two batches (replicate 1 and replicate 2) of 1,10-phenanthroline in a concentration of from 1.7 μM to 3500 μM were used in the positive control assay. A negative control was performed with a buffer and a collagen substrate but without collagenase enzyme.

[2] = biological target: T1, telomerase (Homo sapiens, UniProt O14746); test: Cellular telomerase activity assay (TRAP); assay type: cell-based; design: Telomerase activity Replicate 1 / Telomerase activity Replicate 2 / Telomerase activity Average: unit not given here
T1 construct: endogenous in cells
Source text: A cellular telomerase activity assay determines the ability of a test material to stimulate telomerase activity in human cells, which translates to the material's anti-aging potential. […]
In the cellular telomerase activity assay, telomerase activity level of human cells treated with (and without) a test sample of an extract derived from sugar cane of the present disclosure was monitored. Specifically, a telomeric repeat amplification protocol (TRAP assay) was used for the assay. The TRAP assay was divided into three main steps: extension, amplification, and detection of telomerase products. In the extension phase, telomeric sequences were added to the telomerase substrate, a non-telomeric oligonucleotide, through the action of telomerase present in the cell extract. The products of the extension step were amplified by PCR using specific primers and finally were analyzed via electrophoresis.
Cycloastragenol, a known telomerase activator, was used as an assay control. Two batches (replicate 1 and replicate 2) of cycloastragenol in a concentration from 0.06 μM to 3 μM were used in the control assay.

T1 sequence (O14746 whole entry): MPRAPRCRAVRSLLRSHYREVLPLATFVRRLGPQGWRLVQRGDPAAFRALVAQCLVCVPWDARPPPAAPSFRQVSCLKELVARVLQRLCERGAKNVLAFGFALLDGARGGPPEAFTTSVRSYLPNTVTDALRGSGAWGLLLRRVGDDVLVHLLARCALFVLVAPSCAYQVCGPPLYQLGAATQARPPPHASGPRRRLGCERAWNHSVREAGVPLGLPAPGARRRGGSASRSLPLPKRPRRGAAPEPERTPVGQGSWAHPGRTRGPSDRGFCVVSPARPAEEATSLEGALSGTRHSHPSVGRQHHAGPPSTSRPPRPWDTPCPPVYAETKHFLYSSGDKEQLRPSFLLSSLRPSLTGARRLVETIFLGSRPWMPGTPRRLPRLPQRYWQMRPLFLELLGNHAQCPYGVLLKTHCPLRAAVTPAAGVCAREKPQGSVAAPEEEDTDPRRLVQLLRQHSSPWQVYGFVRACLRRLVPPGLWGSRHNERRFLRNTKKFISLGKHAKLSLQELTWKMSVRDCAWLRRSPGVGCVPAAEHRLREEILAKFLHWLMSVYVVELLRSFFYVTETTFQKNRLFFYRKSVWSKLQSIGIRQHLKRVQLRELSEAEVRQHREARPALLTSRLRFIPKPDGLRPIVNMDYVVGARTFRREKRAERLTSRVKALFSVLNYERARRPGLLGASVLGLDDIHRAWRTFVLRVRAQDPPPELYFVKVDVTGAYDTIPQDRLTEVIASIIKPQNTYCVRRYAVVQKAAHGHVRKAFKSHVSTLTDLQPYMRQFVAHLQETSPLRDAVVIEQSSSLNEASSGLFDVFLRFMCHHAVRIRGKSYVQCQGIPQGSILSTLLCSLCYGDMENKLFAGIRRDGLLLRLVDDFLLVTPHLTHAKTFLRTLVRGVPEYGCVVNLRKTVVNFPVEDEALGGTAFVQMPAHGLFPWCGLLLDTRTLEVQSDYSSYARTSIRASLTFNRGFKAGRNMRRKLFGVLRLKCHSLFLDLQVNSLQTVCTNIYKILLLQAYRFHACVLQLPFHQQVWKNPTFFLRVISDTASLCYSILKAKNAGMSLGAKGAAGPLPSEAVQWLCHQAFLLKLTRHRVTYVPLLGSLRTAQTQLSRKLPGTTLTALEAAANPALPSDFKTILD

c1cnc2c(c1)ccc1cccnc12 [1,10-phenanthroline]
Concentration inducing the maximum inhibition (collagenase) [1]: 3.50 mM
Inhibition (%) Average ([1]; 1.71 uM): −29.05%
Inhibition (%) Relicate 1 ([1]; 1.71 uM): −29.63%
Inhibition (%) Replicate 2 ([1]; 1.71 uM): −28.47%
Inhibition (%) Average ([1]; 3.42 uM): −25.76%
Inhibition (%) Relicate 1 ([1]; 3.42 uM): −27.08%
Inhibition (%) Replicate 2 ([1]; 3.42 uM): −24.45%
Inhibition (%) Average ([1]; 6.84 uM): −21.65%
Inhibition (%) Relicate 1 ([1]; 6.84 uM): −22.85%
Inhibition (%) Replicate 2 ([1]; 6.84 uM): −20.46%
Inhibition (%) Average ([1]; 13.67 uM): −6.70%
Inhibition (%) Relicate 1 ([1]; 13.67 uM): −7.40%
Inhibition (%) Replicate 2 ([1]; 13.67 uM): −6.00%
Inhibition (%) Average ([1]; 27.34 uM): 24.95%
Inhibition (%) Relicate 1 ([1]; 27.34 uM): 25.64%
Inhibition (%) Replicate 2 ([1]; 27.34 uM): 24.25%
Inhibition (%) Average ([1]; 54.69 uM): 58.50%
Inhibition (%) Relicate 1 ([1]; 54.69 uM): 57.26%
Inhibition (%) Replicate 2 ([1]; 54.69 uM): 59.74%
Inhibition (%) Average ([1]; 109.38 uM): 71.66%
Inhibition (%) Relicate 1 ([1]; 109.38 uM): 71.77%
Inhibition (%) Replicate 2 ([1]; 109.38 uM): 71.54%
Inhibition (%) Average ([1]; 218.75 uM): 75.46%
Inhibition (%) Relicate 1 ([1]; 218.75 uM): 75.14%
Inhibition (%) Replicate 2 ([1]; 218.75 uM): 75.78%
Inhibition (%) Average ([1]; 437.50 uM): 77.01%
Inhibition (%) Relicate 1 ([1]; 437.50 uM): 76.63%
Inhibition (%) Replicate 2 ([1]; 437.50 uM): 77.39%
Inhibition (%) Average ([1]; 875.00 uM): 77.37%
Inhibition (%) Relicate 1 ([1]; 875.00 uM): 77.01%
Inhibition (%) Replicate 2 ([1]; 875.00 uM): 77.72%
Inhibition (%) Average ([1]; 1750.00 uM): 77.27%
Inhibition (%) Relicate 1 ([1]; 1750.00 uM): 76.83%
Inhibition (%) Replicate 2 ([1]; 1750.00 uM): 77.71%
Inhibition (%) Average ([1]; 3500.00 uM): 78.99%
Inhibition (%) Relicate 1 ([1]; 3500.00 uM): 79.75%
Inhibition (%) Replicate 2 ([1]; 3500.00 uM): 78.24%
Maximum inhibition achieved (collagenase) ([1]; at 3.50 mM): 78.99%
EC50 ([1]; effective concentration at 50% of maximal inhibition): 26.9 µM
EC50 (collagenase inhibition) ([1]; same value in mass units): (4.84 μg/mL)

CC(C)(O)[C@@H]1CC[C@](C)([C@H]2[C@@H](O)C[C@@]3(C)[C@@H]4C[C@H](O)[C@H]5C(C)(C)[C@@H](O)CC[C@@]56C[C@@]46CC[C@]23C)O1 [Cycloastragenol]
Telomerase activity Average ([2]; 0.06 μM): 1387.33
Telomerase activity Replicate 1 ([2]; 0.06 μM): 925.83
Telomerase activity Replicate 2 ([2]; 0.06 μM): 1848.83
Telomerase activity Average ([2]; 0.13 μM): 1916.83
Telomerase activity Replicate 1 ([2]; 0.13 μM): 2080.83
Telomerase activity Replicate 2 ([2]; 0.13 μM): 1752.83
Telomerase activity Average ([2]; 0.25 μM): 5523.83
Telomerase activity Replicate 1 ([2]; 0.25 μM): 5415.83
Telomerase activity Replicate 2 ([2]; 0.25 μM): 5631.83
Telomerase activity Average ([2]; 0.50 μM): 7501.33
Telomerase activity Replicate 1 ([2]; 0.50 μM): 7834.83
Telomerase activity Replicate 2 ([2]; 0.50 μM): 7167.83
Telomerase activity Average ([2]; 1.00 μM): 15556.33
Telomerase activity Replicate 1 ([2]; 1.00 μM): 15590.83
Telomerase activity Replicate 2 ([2]; 1.00 μM): 15521.83
Telomerase activity Average ([2]; 3.00 μM): 21909.33
Telomerase activity Replicate 1 ([2]; 3.00 μM): 20995.83
Telomerase activity Replicate 2 ([2]; 3.00 μM): 22822.83
EC50 ([2]; half-maximal telomerase activation, human cells): 0.79 µM
EC50 (telomerase activation) ([2]; same value in mass units): (0.39 μg/mL
